Results on six compounds are retold here after patent US20120232062A1, “AZAINDAZOLES TO TREAT FLAVIVIRIDAE VIRUS INFECTION” (EIGER BIOPHARMACEUTICALS, INC., priority 2009, published 2012).

Molecules are shown by their SMILES.

Data set [1] can be described thus: Liver microsome stability, human. Format: in vitro ADME. The text has this: (§1) Metabolic stability assays are designed to measure the stability of a test compound in a variety of assay matrices from human and animal species. From a metabolism perspective, a drug would be relatively stable, have a small first-pass effect, and maintain an effective concentration in blood for a reasonable period of time. A microsomal preparation from the liver contains all CYP isozymes and other membrane-bound drug metabolizing enzymes which are responsible for the metabolism for the majority of drugs in humans. Metabolic stability in liver microsomes can determine half-life (T1/2) and intrinsic clearance (Clint). The determination of Clint may be useful to determine whether metabolism is the major elimination pathway when it is compared to total body clearance in vivo. For high metabolic stability in liver microsomes: […] Human, Sprague Dawley rat, and CD-1 mouse liver microsome samples were purchased from BD Gentest. An in vitro metabolic stability assay suitable for use in predicting first pass metabolism of the compounds useful in the methods of the invention is described in this example. […] 6 mM NADPH in 0.1 M K-phosphate buffer is prepared by dissolving 25.1 mg of NADPH tetrasodium salt in 5 mL of K-phosphate buffer. […] The plate is pre-incubated at 37° C. for 10 minutes. 15 μL of NADPH stock solution (6 mM) is added to the wells designated for Time 60 and timed. At 30 min, 15 min, and 5 min, 15 μL of NADPH stock solution (6 mM) is added to the wells. At the end of incubation, 135 μL of ACN containing IS is added to all the wells (60 min, 30 min, 15 min, 5 min and 0 min). Then 15 μL of NADPH stock solution (6 mM) is added to the wells designated as Time 0.
(In general: Liver microsomes are a subcellular fraction often used to study metabolism.)

A short description of data set [2]: Liver microsome stability, mouse. The class given is in vitro ADME, CD-1 mouse.
Description: as §1

Data set [3] in a line: Caco-2 permeability testing. The class given is in vitro ADME, human. To be noted: human; for Papp A→B at 90 min, 10 µM: Caco-2, pH 7.4, Caco-2, A-B, read-out: Permeability (second figure of Efflux/permeability), Papp (A-B); for Papp B→A at 90 min, 10 µM: Caco-2, pH 7.4, Caco-2, B-A, read-out: Efflux (first figure of Efflux/permeability), Papp (B-A). The source says:
Intestinal epithelium permeability is a critical characteristic that determines the rate and extent of human absorption and affects bioavailability of a drug candidate. Poor intestinal permeability leads to limited absorption. Generally, higher absorption is preferred. The Caco-2 cell line is a human colon adeno-carcinoma cell line that resembles the epithelial lining of the human small intestine. Several transport proteins that are expressed in human intestinal epithelium are also expressed in the Caco-2 cell model. Some transporter proteins are efflux systems which mediate the secretion of compounds from inside the cell back to the apical lumen (representative of the intestinal lumen), limiting overall absorption. In a permeability assay, the apparent permeability coefficient is measured between the apical to basolateral sides of a cell monolayer, Papp (A-B), and the basolateral to the apical side, Papp (B-A). Papp (A-B)<2×10^−6 cm/s is predictive of low permeability to the basolateral side, 2×10^−6 cm/s<Papp (A-B)<20×10^−6 cm/s is predictive of medium permeability, and Papp (A-B)>20×10^−6 cm/s is predictive of high permeability. In the B-A permeability assay, Papp (B-A) is measured and compounds evaluated for efflux potential. Together, these assay results are reported as a ratio of Papp (B-A) to Papp (A-B). Papp (B-A)/Papp (A-B)>3 are likely to be transported by one of the efflux systems, and have poor absorption. Papp (B-A)/Papp (A-B)<3 are likely to show reasonable intestinal absorption. An in vitro drug absorption assay suitable for use in predicting intestinal absorption of the compounds useful in the methods of the invention is described in this example. The embodiments of this assay described in this example were developed by Shanghai ChemPartner Co., Ltd., a corporation of China with its principal office located at 720 Cailun Road, Building No. 3, Shanghai 201203, China.
Caco-2 (ATCC, catalog No. HTB-37™) cells are cultured in growth medium (MEM+10% FBS+1% NEAA). The growth medium is prepared by adding 50 mL FBS and 5 mL NEAA to 445 mL of MEM or by adjusting the final volume according to actual needs. Trypsin-EDTA (Invitrogen, Cat #25200-072) is also used.
Hanks Balanced Salt Solution (HBSS, Invitrogen, Cat #14025-092) with 25 mM HEPES, pH 7.4, HBSS buffer with 0.2% DMSO (50 μL DMSO into 25 ml HBSS buffer), and HBSS buffer with 0.4% DMSO (100 μL DMSO into 25 ml HBSS buffer) are used.
10 mM stock solutions of a compound is prepared in DMSO and Lucifer Yellow in assay buffer using the formula (Actual Weight/Molecular Weight)/mL solvent=10 mM. Erythromycin, Metoprolol, and Atenolol are used as reference compounds. Donor solutions (10 μM for compounds and 5 μM for Lucifer Yellow) are prepared. For A-B, 4 μL of 10 mM compound stock solution and 2 μL of 10 mM Lucifer Yellow stock solution are loaded into 4 mL of HBSS buffer, and centrifuged (5 min, 4000 rpm) to precipitate undissolved particles. Supernatants are collected for compound dosing. For B-A, 4 μL (compounds) of 10 mM compound stock solution is added to 4 mL HBSS buffer with 0.2% DMSO, and centrifuged (5 min, 4000 rpm) to precipitate undissolved particles. Supernatants are collected for compound dosing.
Receiver solutions are prepared. For A-B, the solution is HBSS buffer with 0.4% DMSO. For B-A, 2 μL of 10 mM Lucifer Yellow stock solution is added to 4 mL of HBSS buffer with 0.2% DMSO. Compound solutions are prepared for standard curve (3 μM/1 μM/0.2 μM/0.04 μM/0.01 μM/0.005 μM):
1× solution: 3 μL of 20× solution (0.1-60 μM)+57 μL 0.4% DMSO HBSS+60 μL acetonitrile (ACN) with internal standard (IS, 200 ng/mL Osalmid). The assay was performed as described below
Stock cultures are maintained in MEM+10% FBS+1% NEAA, grown in 75 cm^2 tissue culture treated flasks and split (passed) 2 times weekly to maintain desired confluence. For maintenance passage, trypsinized cells are routinely distributed into new flasks at a standard passage ratio of 1:4. […]
A general note: Caco-2 monolayers are a common model of the intestinal barrier.

Data set [4] can be described thus: Liver microsome stability, rat. Format: in vitro ADME, Sprague Dawley rat.
Description: as §1

Regarding `Cn1nc(CCCN2CCCC2)c2ccc(N3CCCCCCC3)nc21` [compound 1171], the figures for the “human liver microsome (HLM, % parent remaining)” value in data set [1] (after 15 min), in data set [1] (after 30 min) and in data set [1] (after 60 min) were 67 % parent remaining, 44 % parent remaining and 23 % parent remaining, respectively. Further, the “mouse liver microsome (MLM), % parent remaining” value in data set [2] (after 15 min) is on record as 22 % parent remaining; in data set [2] (after 30 min), 3 % parent remaining; in data set [2] (after 60 min), 1 % parent remaining. Besides, the Papp A→B at 90 min, 10 µM in data set [3] turned out to be 17 ×10⁻⁶ cm/s. Also, the Papp B→A at 90 min, 10 µM in data set [3] worked out at 11 ×10⁻⁶ cm/s. Besides, the “rat liver microsome (RLM), % parent remaining” value in data set [4] (after 15 min) was determined as 1.2 % parent remaining; in data set [4] (after 30 min) it was 0.5 % parent remaining; in data set [4] (after 60 min) it was 0.3 % parent remaining.
For the compound `CCN1CCC(NC(=O)c2nn(C)c3nc(N4CCCCCC4)ccc23)CC1` [EBP1595], the “human liver microsome (HLM, % parent remaining)” value in data set [1] (after 15 min) was determined as 73 % parent remaining; in data set [1] (after 30 min), 46 % parent remaining; in data set [1] (after 60 min), 14 % parent remaining. The “liver stability predicted by in vitro PK profiles” value in data set [1] (human vs rat liver, in words) is recorded as “higher stability in human liver vs rat liver”. Further, the “mouse liver microsome (MLM), % parent remaining” value in data set [2] (after 15 min) worked out at 67 % parent remaining; in data set [2] (after 30 min), 50 % parent remaining; in data set [2] (after 60 min), 17 % parent remaining. Moreover, the efflux ratio at 90 min, 10 µM in data set [3] (pH 7.4, Caco-2, Papp (B-A)/Papp (A-B), read-out: Efflux/Permeability ratio (desired <3)) is 0.9. The figures for the “rat liver microsome (RLM), % parent remaining” value in data set [4] (after 15 min), in data set [4] (after 30 min) and in data set [4] (after 60 min) were 67 % parent remaining, 46 % parent remaining and 8 % parent remaining, respectively.
For the compound `CCN1CCC(NC(=O)c2nn(C)c3nc(N4CCCCCC4)ccc23)CC1` [compound 1595], the results for the “human liver microsome (HLM, % parent remaining)” value in data set [1] (after 15 min), in data set [1] (after 30 min) and in data set [1] (after 60 min) were 73 % parent remaining, 45 % parent remaining and 14 % parent remaining, respectively. Moreover, the “mouse liver microsome (MLM), % parent remaining” value in data set [2] (after 15 min) was found to be 67 % parent remaining; in data set [2] (after 30 min) it was 50 % parent remaining; in data set [2] (after 60 min), 17 % parent remaining. Also, the Papp A→B at 90 min, 10 µM in data set [3] was found to be 15.3 ×10⁻⁶ cm/s. Also, the Papp B→A at 90 min, 10 µM in data set [3] was 14.4 ×10⁻⁶ cm/s. Further, the “rat liver microsome (RLM), % parent remaining” value was 67 % parent remaining in data set [4] (after 15 min), 46 % parent remaining in data set [4] (after 30 min) and 8 % parent remaining in data set [4] (after 60 min).
In the case of `Cn1nc(C(=O)NC2CCN(CCN3CCCCC3)CC2)c2ccc(N3CCCCCC3)nc21` [compound 1047], the “human liver microsome (HLM, % parent remaining)” value is recorded as 78 % parent remaining in data set [1] (after 15 min), 62 % parent remaining in data set [1] (after 30 min) and 34 % parent remaining in data set [1] (after 60 min). Moreover, the “mouse liver microsome (MLM), % parent remaining” value is listed as 56 % parent remaining in data set [2] (after 15 min), 29 % parent remaining in data set [2] (after 30 min) and 12 % parent remaining in data set [2] (after 60 min). For the same compound, the Papp A→B at 90 min, 10 µM in data set [3] came to 10.5 ×10⁻⁶ cm/s. The Papp B→A at 90 min, 10 µM in data set [3] amounted to 7.6 ×10⁻⁶ cm/s. Besides, the results for the “rat liver microsome (RLM), % parent remaining” value in data set [4] (after 15 min), in data set [4] (after 30 min) and in data set [4] (after 60 min) were 44 % parent remaining, 18 % parent remaining and 10 % parent remaining, respectively.
With `Cn1nc(C(=O)NC2CCN(CC(F)F)CC2)c2ccc(N3CCCCCC3)nc21` [compound 1110], the results for the “human liver microsome (HLM, % parent remaining)” value in data set [1] (after 15 min), in data set [1] (after 30 min) and in data set [1] (after 60 min) were 8 % parent remaining, 0.4 % parent remaining and 0.4 % parent remaining, respectively. Further, the “mouse liver microsome (MLM), % parent remaining” value is listed as 15 % parent remaining in data set [2] (after 15 min), 1 % parent remaining in data set [2] (after 30 min) and 0.4 % parent remaining in data set [2] (after 60 min). Further, in data set [3], the Papp A→B at 90 min, 10 µM turned out to be 13.8 ×10⁻⁶ cm/s. In data set [3], the Papp B→A at 90 min, 10 µM came to 10.1 ×10⁻⁶ cm/s. Besides, the entries for the “rat liver microsome (RLM), % parent remaining” value in data set [4] (after 15 min), in data set [4] (after 30 min) and in data set [4] (after 60 min) were 10 % parent remaining, 0.5 % parent remaining and 0.5 % parent remaining, respectively.
Turning to `CCC(CC)Oc1ccc2c(C(=O)NC3CCNCC3)n[nH]c2n1` [compound 726], the “human liver microsome (HLM, % parent remaining)” value in data set [1] (after 15 min) came out at 86 % parent remaining; in data set [1] (after 30 min), 81 % parent remaining; in data set [1] (after 60 min), 65 % parent remaining. In addition, the results for the “mouse liver microsome (MLM), % parent remaining” value in data set [2] (after 15 min), in data set [2] (after 30 min) and in data set [2] (after 60 min) were 99 % parent remaining, 96 % parent remaining and 86 % parent remaining, respectively. For the same compound, the Papp A→B at 90 min, 10 µM in data set [3] was found to be 3.5 ×10⁻⁶ cm/s. For the same compound, the Papp B→A at 90 min, 10 µM in data set [3] was 41 ×10⁻⁶ cm/s. Further, the “rat liver microsome (RLM), % parent remaining” value is listed as 83 % parent remaining in data set [4] (after 15 min), 69 % parent remaining in data set [4] (after 30 min) and 53 % parent remaining in data set [4] (after 60 min).
